# Test results from ChEMBL document CHEMBL1201862, “PubChem BioAssay data set” (2004).
# The source made the active and inactive calls.
# Legend:
# [1] = molecular target: Glyceraldehyde-3-phosphate dehydrogenase (Homo sapiens, UniProt P04406)
# Bcl-2-related protein A1 [2] = molecular target: T1, Bcl-2-related protein A1 (Mus musculus, UniProt Q07440); test: Bfl-1 inhibitors blocking BH3 peptide binding, confirmation, biochemical, TR-FRET, mouse Bfl-1 (AID 621);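 note: TR-FRET binding of GST-Bfl-1 to FITC-labelled Bid peptide via terbium antibody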
# T1 sequence (Q07440 whole entry): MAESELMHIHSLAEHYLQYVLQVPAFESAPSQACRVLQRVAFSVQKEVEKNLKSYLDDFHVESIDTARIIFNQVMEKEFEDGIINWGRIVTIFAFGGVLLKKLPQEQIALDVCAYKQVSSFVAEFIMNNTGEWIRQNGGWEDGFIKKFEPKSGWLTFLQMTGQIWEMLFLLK
# Bcl-2-related protein A1 [3] = molecular target: T1, Bcl-2-related protein A1; test: Bfl-1 binding inhibitors, SAR follow-up, biochemical, fluorescence polarization (AID 1070)
# [4] = inhibitors of Vif binding to APOBEC3G peptide, primary screen, biochemical, TR-FRET, GST-Vif 1-94, biotin-A3G peptide, dose response retest (AID 1117319); format: functional;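 note: TR-FRET signal of purified GST-Vif binding a biotinylated A3G peptide; inhibitors lower the FRET signal by blocking Vif and A3G binding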
# [5] = inhibitors of intracellular T. cruzi replication, confirmation, NIH3T3 host cells, beta-gal luminescence (AID 2044); format: functional, cell-based;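 note: intracellular parasites grown in NIH/3T3 mouse fibroblasts as host cells; luminescent beta-galactosidase reporter signal from transgenic T. cruzi replicating inside host cells; inhibitors lower the luminescence signal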
# [6] = cytotoxicity toward NIH3T3 fibroblasts, dose response, counter-screen, cell-based, ATP luminescence, mouse fibroblasts (AID 2010); format: functional;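 note: cells exposed to compound for about 90 hours before reading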
# [7] = off-target signal loss in HeLa-CEM21 co-culture – HeLa F-luc CTL cells, cherry-picked, counter-screen for HIV-1 Env fusion inhibitor project, dose response (AID 652040); format: functional, cell-based;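 note: potency for signal decrease marking cytotoxic or nonspecific inhibition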
# [8] = inhibitors of clade B AD8 Env fusion, dose response, cell-based, cherry-pick (AID 652062); format: functional;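 note: luciferase signal from cell-cell fusion driven by HIV-1 clade B AD8 Env; potency is for inhibitors of fusion seen as a drop in luminescence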
# [9] = molecular target: FAD-linked sulfhydryl oxidase ALR (Homo sapiens, UniProt P55789); test: inhibitors of human ALR sulfhydryl oxidase, dose response, biochemical, H2O2 detection, luminescence, cherry-pick (AID 493248)
# Protein skinhead-1 = molecular target: T2, Protein skinhead-1 (Caenorhabditis elegans, UniProt P34707); format: functional
# T2 sequence (P34707 whole entry): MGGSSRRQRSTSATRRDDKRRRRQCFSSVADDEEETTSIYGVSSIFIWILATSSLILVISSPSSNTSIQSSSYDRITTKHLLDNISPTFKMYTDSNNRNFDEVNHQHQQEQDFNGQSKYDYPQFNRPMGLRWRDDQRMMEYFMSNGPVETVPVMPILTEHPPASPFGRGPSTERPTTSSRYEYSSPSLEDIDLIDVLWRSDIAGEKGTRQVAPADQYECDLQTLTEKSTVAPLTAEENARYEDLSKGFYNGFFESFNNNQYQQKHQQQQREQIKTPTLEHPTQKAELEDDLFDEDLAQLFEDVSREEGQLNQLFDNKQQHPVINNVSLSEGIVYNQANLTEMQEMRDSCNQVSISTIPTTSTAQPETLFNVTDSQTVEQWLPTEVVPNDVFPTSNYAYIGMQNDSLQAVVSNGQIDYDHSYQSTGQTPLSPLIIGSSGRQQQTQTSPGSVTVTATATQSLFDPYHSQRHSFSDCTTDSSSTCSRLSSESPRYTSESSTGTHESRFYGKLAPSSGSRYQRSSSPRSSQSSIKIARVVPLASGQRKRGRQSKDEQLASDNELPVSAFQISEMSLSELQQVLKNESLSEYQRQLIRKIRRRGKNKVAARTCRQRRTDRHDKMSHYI
# [10] = molecular target: T3, Rac GTPase-activating protein 1 (Homo sapiens, UniProt Q9H0H5); test: MgcRacGAP GTPase-activating activity inhibitors, confirmation, biochemical, ADP Hunter fluorescence, primary and confirmatory (AID 624330); format: functional
# T3 sequence (Q9H0H5 whole entry): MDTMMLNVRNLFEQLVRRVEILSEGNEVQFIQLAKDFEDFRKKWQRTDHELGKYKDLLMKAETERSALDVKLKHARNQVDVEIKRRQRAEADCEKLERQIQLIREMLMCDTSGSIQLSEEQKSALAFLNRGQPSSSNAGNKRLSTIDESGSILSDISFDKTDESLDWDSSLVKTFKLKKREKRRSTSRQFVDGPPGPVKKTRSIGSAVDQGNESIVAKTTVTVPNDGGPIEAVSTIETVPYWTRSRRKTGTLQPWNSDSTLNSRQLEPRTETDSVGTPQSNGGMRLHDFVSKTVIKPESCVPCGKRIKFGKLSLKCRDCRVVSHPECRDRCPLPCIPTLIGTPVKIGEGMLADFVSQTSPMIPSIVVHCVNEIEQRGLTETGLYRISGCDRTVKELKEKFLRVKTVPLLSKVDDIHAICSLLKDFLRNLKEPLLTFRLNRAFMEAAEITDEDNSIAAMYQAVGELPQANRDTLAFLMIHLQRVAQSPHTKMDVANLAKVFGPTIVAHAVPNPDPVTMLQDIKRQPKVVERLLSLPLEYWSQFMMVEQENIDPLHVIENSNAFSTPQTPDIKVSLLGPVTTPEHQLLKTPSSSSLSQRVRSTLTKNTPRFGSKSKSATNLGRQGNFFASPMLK
# Protein Tat = molecular target: T4, Protein Tat (Human immunodeficiency virus type 1 group M subtype B (isolate HXB2)(HIV-1), UniProt P04608); format: functional;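 note: tat binding to TAR RNA read out by fluorescence polarization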
# T4 sequence (P04608 whole entry): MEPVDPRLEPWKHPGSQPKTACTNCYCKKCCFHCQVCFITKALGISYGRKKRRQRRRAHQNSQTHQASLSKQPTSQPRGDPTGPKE
# [11] = HEp-2 cell cytotoxicity, dose response, cytotoxicity control for RSV inhibitor project, HTS (AID 2410); format: functional; conditions: human respiratory syncytial virus
# [12] = system: Streptococcus sp. 'group A'; test: growth inhibition of control SK(-) GAS strain, dose response, counter-screen for streptokinase expression inhibitor project, luminescence, kanamycin, BacTiterGlo, confirmation (AID 1900); format: functional, organism-based
# Streptokinase A = molecular target: T5, Streptokinase A (Streptococcus pyogenes serotype M1, UniProt P10520); test: S. pyogenes streptokinase expression inhibitors, potency, dose response, plasminogen activation absorbance, OD405 (AID 1914); format: functional, Streptococcus pyogenes M1 GAS;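 note: secreted streptokinase activity via plasminogen activation per viability signal from cell pellet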
# T5 sequence (P10520 whole entry): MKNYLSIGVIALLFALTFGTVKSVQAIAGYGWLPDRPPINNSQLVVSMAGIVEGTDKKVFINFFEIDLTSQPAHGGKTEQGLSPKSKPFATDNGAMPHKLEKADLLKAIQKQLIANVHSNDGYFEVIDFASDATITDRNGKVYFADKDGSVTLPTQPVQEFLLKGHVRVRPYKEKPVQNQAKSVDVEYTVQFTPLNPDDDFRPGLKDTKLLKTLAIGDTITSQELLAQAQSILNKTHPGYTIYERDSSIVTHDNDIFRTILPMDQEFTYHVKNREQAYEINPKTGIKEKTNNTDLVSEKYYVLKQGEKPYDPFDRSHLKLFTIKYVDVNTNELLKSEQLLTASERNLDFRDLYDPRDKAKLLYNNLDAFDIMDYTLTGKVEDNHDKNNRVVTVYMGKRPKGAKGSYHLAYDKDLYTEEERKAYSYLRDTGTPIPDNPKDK
# Streptococcus = test: Group A Streptococcus viability loss, dose response, counter-screen for streptokinase expression inhibitor project, luminescence, BacTiterGlo (AID 1915); format: functional, organism-based;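 note: potency for reduction of bacterial viability or growth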
# [13] = molecular target: T6, Dual specificity protein phosphatase 6 (Rattus norvegicus, UniProt Q64346); test: MKP-3 phosphatase inhibitors, primary screen, biochemical, rat enzyme, in vitro (AID 425)
# T6 sequence (Q64346 whole entry): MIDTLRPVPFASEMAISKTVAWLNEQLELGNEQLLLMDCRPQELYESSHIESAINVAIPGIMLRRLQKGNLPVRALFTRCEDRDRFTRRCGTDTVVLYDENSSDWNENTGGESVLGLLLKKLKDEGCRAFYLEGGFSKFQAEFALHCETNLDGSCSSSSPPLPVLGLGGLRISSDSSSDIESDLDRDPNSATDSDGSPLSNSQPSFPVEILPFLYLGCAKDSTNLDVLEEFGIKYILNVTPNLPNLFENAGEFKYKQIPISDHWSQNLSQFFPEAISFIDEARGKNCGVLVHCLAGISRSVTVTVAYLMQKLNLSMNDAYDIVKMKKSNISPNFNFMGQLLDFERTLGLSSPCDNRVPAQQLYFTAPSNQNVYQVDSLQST
# Cytochrome P450 1A2 = molecular target: T7, Cytochrome P450 1A2 (Homo sapiens, UniProt P05177);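 note: PubChem cytochrome P450 panel assay, CYP1A2 panel member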
# T7 sequence (P05177 whole entry): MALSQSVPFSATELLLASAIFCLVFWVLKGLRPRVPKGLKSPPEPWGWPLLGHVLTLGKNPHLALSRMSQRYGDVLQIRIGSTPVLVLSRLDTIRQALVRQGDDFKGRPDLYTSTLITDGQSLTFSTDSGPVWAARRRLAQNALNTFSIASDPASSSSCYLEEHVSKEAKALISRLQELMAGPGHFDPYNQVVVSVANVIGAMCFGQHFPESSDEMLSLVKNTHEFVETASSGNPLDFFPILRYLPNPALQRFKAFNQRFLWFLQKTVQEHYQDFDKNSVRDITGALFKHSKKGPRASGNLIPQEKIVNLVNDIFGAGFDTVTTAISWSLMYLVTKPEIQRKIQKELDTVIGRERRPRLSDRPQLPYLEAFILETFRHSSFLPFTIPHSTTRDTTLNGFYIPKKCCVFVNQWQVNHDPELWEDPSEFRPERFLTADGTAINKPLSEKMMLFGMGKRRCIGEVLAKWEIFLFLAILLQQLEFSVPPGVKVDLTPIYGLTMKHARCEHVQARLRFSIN
# [14] = inhibitors of HIV Env-driven cell fusion, dose response, cherry-pick (AID 652057); format: functional, cell-based
# [15] = ZM109 Env clade C HIV-1 fusion inhibitors, dose response, HeLa effector, CEM target cells, luciferase, cherry-pick (AID 652058); format: functional, cell-based
# [16] = molecular target: T8, Mannose-6-phosphate isomerase (Homo sapiens, UniProt P34949); test: human PMI inhibitors, high substrate, primary screen, biochemical, fluorescence intensity, high mannose 6-phosphate (AID 1220)
# T8 sequence (P34949 whole entry): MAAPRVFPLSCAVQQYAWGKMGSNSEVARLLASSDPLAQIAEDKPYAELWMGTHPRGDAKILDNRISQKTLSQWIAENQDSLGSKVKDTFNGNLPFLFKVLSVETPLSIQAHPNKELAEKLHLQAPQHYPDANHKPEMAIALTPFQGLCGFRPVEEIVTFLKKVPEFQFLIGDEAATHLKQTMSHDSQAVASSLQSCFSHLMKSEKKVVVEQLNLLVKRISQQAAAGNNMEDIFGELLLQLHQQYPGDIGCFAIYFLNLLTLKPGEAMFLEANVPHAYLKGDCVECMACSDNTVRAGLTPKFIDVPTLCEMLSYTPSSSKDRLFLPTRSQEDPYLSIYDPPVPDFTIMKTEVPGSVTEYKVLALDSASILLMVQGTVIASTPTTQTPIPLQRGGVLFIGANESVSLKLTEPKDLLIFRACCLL
# [17] = THP-1 cell cytotoxicity, dose response, cytotoxicity control for Vif-APOBEC3G degradation inhibitor project, THP-1 cells (AID 1117359); format: functional; conditions: Human immunodeficiency virus 1, THP-1
# [18] = P. falciparum Dd2 growth inhibitors, dose response, SYBR Green, cherry-picked samples (AID 1159567); format: functional, cell-based
# Glyceraldehyde-3-phosphate dehydrogenase, sequence (P04406 whole entry): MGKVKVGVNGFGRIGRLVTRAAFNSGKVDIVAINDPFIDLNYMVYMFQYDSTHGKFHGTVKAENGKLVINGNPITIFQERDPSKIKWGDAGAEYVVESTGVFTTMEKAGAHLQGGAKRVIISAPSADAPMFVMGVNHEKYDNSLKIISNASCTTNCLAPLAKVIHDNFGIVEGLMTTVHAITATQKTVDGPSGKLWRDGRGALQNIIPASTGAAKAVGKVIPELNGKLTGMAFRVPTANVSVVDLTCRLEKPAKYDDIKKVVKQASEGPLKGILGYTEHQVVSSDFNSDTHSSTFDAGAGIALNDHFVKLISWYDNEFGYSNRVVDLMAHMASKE
# FAD-linked sulfhydryl oxidase ALR, sequence (P55789 whole entry): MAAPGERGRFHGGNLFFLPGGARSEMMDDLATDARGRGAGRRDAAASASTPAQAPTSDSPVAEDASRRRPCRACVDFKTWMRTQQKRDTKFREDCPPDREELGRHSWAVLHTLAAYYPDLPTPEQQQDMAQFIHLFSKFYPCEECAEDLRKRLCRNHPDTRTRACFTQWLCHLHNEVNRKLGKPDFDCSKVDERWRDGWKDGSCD
smiles,measurement,setting,value
Cc1cccc(N2C(=O)C(Cl)=C(N3CCN(CCO)CC3)C2=O)c1,IC50,[1],> 100 µM (not active)
same,IC50,Bcl-2-related protein A1 [2],11.5 µM (active)
same,IC50,Bcl-2-related protein A1 [3],12.3 µM (active)
CC(C)n1/c(=N/C(=O)c2ccco2)c(C#N)cc2c(=O)n3ccccc3cc21,IC50,[4],> 100 µM (active)
CC(=O)c1ccc(S(=O)(=O)N2CCN(c3nc4c(C)c(C)ccc4cc3C#N)CC2)cc1,EC50,[5],1.9 µM (active)
same,EC50,[6],> 60 µM (not active)
same,AC50,[7],10.3 µM (active)
same,AC50,[8],11.2 µM (active)
COCCn1c(-c2ccccc2Cl)nc2c(c(=O)c3ccccc3n2C)c1=O,IC50,cells,14.6 µM (active)
CC(=O)N1CCN(c2ccc(NCc3ccccc3)cc2)CC1,AC50,[9],0.57 µM (active)
same,IC50,Protein skinhead-1,> 100 µM (inactive)
same,IC50,[10],10.5 µM (active)
same,IC50,Protein Tat,13.7 µM (inconclusive)
same,IC50,[4],> 50.5 µM (active)
Cc1ccc2c(C)c(C(=O)Nc3ccc(S(=O)(=O)Nc4onc(C)c4C)cc3)oc2c1,CC50,[11],24.4 µM (active)
same,EC50,[12],23.8 µM (active)
same,EC50,Streptokinase A,> 150 µM (not active)
same,EC50,Streptococcus,> 150 µM (not active)
same,IC50,cells,24.7 µM (active)
COc1ccc(S(=O)(=O)N2CCC(NC(=O)Nc3ccc(C)cc3)CC2)cc1,IC50,[13],> 100 µM (not active)
same,AC50,Cytochrome P450 1A2,31.6 µM (inconclusive)
CS(=O)(=O)c1nc(-c2ccccc2)cc(-c2ccccc2)n1,IC50,[1],> 100 µM (not active)
same,IC50,Bcl-2-related protein A1 [2],> 100 µM (not active)
same,IC50,Bcl-2-related protein A1 [3],> 100 µM (not active)
O=C1C(Cl)=C(Nc2ccccc2)C(=O)N1c1ccc(Cl)c(Cl)c1,IC50,[1],> 100 µM (not active)
same,IC50,Bcl-2-related protein A1 [2],> 100 µM (not active)
same,IC50,Bcl-2-related protein A1 [3],> 100 µM (not active)
COC(=O)[C@]1(C)N[C@H](CN(C)S(=O)(=O)c2ccc(-c3ccccc3)cc2)[C@@H]2C(=O)N(Cc3ccccc3)C(=O)[C@@H]21,AC50,[14],3.7 µM (active)
same,AC50,[15],9.4 µM (active)
same,AC50,[7],5.77 µM (active)
same,AC50,[8],11.7 µM (active)
Cc1cccc(Oc2c([N+](=O)[O-])c(=O)n(C)c3ccccc23)c1,IC50,[16],> 50 µM (not active)
COc1ccc(C(=O)Cn2c(=N)n(C)c3ccccc32)cc1,CC50,[17],> 40 µM (active)
same,IC50,[4],> 100 µM (active)
COC(=O)C1=C(c2ccc(F)cc2F)C[C@@H]2CC[C@H]1N2C(=O)NCCOc1ccccc1Cl,CC50,[11],34.5 µM (active)
same,IC50,cells,13.9 µM (active)
O=C1C(Cl)=C(N2CCN(c3ncccn3)CC2)C(=O)N1c1ccc(Cl)c(Cl)c1,IC50,[1],> 100 µM (not active)
same,IC50,Bcl-2-related protein A1 [2],2.46 µM (active)
same,IC50,Bcl-2-related protein A1 [3],1.9 µM (active)
CCS(=O)(=O)N1[C@H](CO)[C@H](c2ccc(C#Cc3ccccc3F)cc2)[C@@H]1C#N,AC50,[18],4.23 µM (active)
CN(C)CCn1c(=O)n(-c2cccc(Cl)c2)c(=O)c2c3c(sc21)CCCCC3,AC50,[14],0.786 µM (active)
same,AC50,[15],0.997 µM (active)
same,AC50,[7],1.96 µM (active)
same,AC50,[8],4.37 µM (active)
